Reference: patent publication US10064873B2, “Compounds and compositions for treating HIV with derivatives of Betulin” (GlaxoSmithKline LLC, priority 2011, dated 2018)

The compounds below were run on HIV NL4-3 wt (assay: MT4 antiviral assay, NL4-3 strain wild type). Details: Human immunodeficiency virus 1, NL43, MT4, read-out: EC50 NL4-3 wt (nM).
Format: cell-based, HIV-1
With CC(C)C1=C2[C@H]3CC[C@@H]4[C@@]5(C)CC[C@H](OC(=O)CC(C)(C)C(=O)O)C(C)(C)[C@@H]5CC[C@@]4(C)[C@]3(C)CC[C@@]2(CCNCc2ccccc2Cl)CC1=O [Example 82, 4-{[(1R,2R,5R,10S,13R,14R, 17S,19R)-5-(2-{[(2-chlorophenyl)methyl]amino}ethyl)-1,2,14,18,18-pentamethyl-7-oxo-8-(propan-2-yl)pentacyclo[11.8.0.0^ {2,10}.0^{5,9}.0^{14,19}]henicos-8-en-17-yl]oxy}-2,2-dimethyl-4-oxobutanoic acid] the EC50 was 8.9 nM. CC(C)C1=C2[C@H]3CC[C@@H]4[C@@]5(C)CC[C@H](OC(=O)CC(C)(C)C(=O)O)C(C)(C)[C@@H]5CC[C@@]4(C)[C@]3(C)CC[C@@]2(CCNC(=O)c2ccccc2)CC1=O [Example 83, 2,2-dimethyl-4-oxo-4-{[(1R,2R,5R,10S,13R,14R, 17S,19R)-1,2,14,18,18-pentamethyl-7-oxo-5-[2-(phenylformamido)ethyl]-8-(propan-2-yl)pentacyclo[11.8.0.0^ {2,10}.0^{5,9}.0^{14,19}]henicos-8-en-17-yl]oxy)butanoic acid] showed an EC50 of 7.3 nM.

Same assay, conditions: Human immunodeficiency virus 1, NL43; MT4 cells; read-out: EC50 NL4-3 wt
In the case of CC(C)C1=C2[C@H]3CC[C@@H]4[C@@]5(C)CC[C@H](OC(=O)CC(C)(C)CC(=O)O)C(C)(C)[C@@H]5CC[C@@]4(C)[C@]3(C)CC[C@@]2([C@H](O)CNCc2ccc(Cl)cc2)CC1=O [Example 73, 5-(((3aR,5aR,5bR,7aR,9S,11aR,11bR,13aS)-3a-((S)-2-((4-chlorobenzyl)amino)-1-hydroxyethyl)-1-isopropyl-5a,5b,8,8,11a-pentamethyl-2-oxo-3,3a,4,5,5a,5b,6,7,7a,8,9,10,11,11a,11b,12,13,13a-octadecahydro-2H-cyclopenta[a]chrysen-9-yl)oxy)-3,3-dimethyl-5-oxopentanoic acid], the EC50 is reported as 31.8 nM. Work on CC(C)C1=C2[C@H]3CC[C@@H]4[C@@]5(C)CC[C@H](OC(=O)CC(C)(C)C(=O)O)C(C)(C)[C@@H]5CC[C@@]4(C)[C@]3(C)CC[C@@]2([C@H](O)CN(CCN(C)C)Cc2ccc(Cl)cc2Cl)CC1=O [Example 74, 4-(((3aR,5aR,5bR,7aR,9S,11aR,11bR,13aS)-3a-((S)-2-((2,4-dichlorobenzyl)(2-(dimethylamino)ethyl)amino)-1-hydroxyethyl)-1-isopropyl-5a,5b,8,8,11a-pentamethyl-2-oxo-3,3a,4,5,5a,5b,6,7,7a,8,9,10,11,11a,11b,12,13,13a-octadecahydro-2H-cyclopenta[a]chrysen-9-yl)oxy)-2,2-dimethyl-4-oxobutanoic acid] yielded an EC50 of 2.9 nM. Work on CC(C)C1=C2[C@H]3CC[C@@H]4[C@@]5(C)CC[C@H](OC(=O)CC(C)(C)C(=O)O)C(C)(C)[C@@H]5CC[C@@]4(C)[C@]3(C)CC[C@@]2([C@@H](O)CN(CCN(C)C)Cc2ccc(F)cc2)CC1=O [Example 76, 4-(((3aR,5aR,5bR,7aR,9S,11aR,11bR,13aS)-3a-((R)-2-((2-(dimethylamino)ethyl)(4-fluorobenzyl)amino)-1-hydroxyethyl)-1-isopropyl-5a,5b,8,8,11a-pentamethyl-2-oxo-3,3a,4,5,5a,5b,6,7,7a,8,9,10,11,11a,11b,12,13,13a-octadecahydro-2H-cyclopenta[a]chrysen-9-yl)oxy)-2,2-dimethyl-4-oxobutanoic acid] yielded an EC50 of 0.7 nM. CC(C)C1=C2[C@H]3CC[C@@H]4[C@@]5(C)CC[C@H](OC(=O)CC(C)(C)C(=O)O)C(C)(C)[C@@H]5CC[C@@]4(C)[C@]3(C)CC[C@@]2([C@@H](O)CNCc2ccc(F)cc2)CC1=O [Example 77, 4-(((3aR,5aR,5bR,7aR,9S,11aR,11bR,13aS)-3a-((R)-2-((4-fluorobenzyl)amino)-1-hydroxyethyl)-1-isopropyl-5a,5b,8,8,11a-pentamethyl-2-oxo-3,3a,4,5,5a,5b,6,7,7a,8,9,10,11,11a,11b,12,13,13a-octadecahydro-2H-cyclopenta[a]chrysen-9-yl)oxy)-2,2-dimethyl-4-oxobutanoic acid] showed an EC50 of 4.7 nM. CC(C)C1=C2[C@H]3CC[C@@H]4[C@@]5(C)CC[C@H](OC(=O)CC(C)(C)C(=O)O)C(C)(C)[C@@H]5CC[C@@]4(C)[C@]3(C)CC[C@@]2([C@H](O)CN(CCN(C)C)Cc2ccc(F)cc2)CC1=O [Example 78, 4-(((3aR,5aR,5bR,7aR,9S,11aR,11bR,13aS)-3a-((S)-2-((2-(dimethylamino)ethyl)(4-fluorobenzyl)amino)-1-hydroxyethyl)-1-isopropyl-5a,5b,8,8,11a-pentamethyl-2-oxo-3,3a,4,5,5a,5b,6,7,7a,8,9,10,11,11a,11b,12,13,13a-octadecahydro-2H-cyclopenta[a]chrysen-9-yl)oxy)-2,2-dimethyl-4-oxobutanoic acid] was tested, and the EC50 was 2.1 nM. In the case of CC(C)C1=C2[C@H]3CC[C@@H]4[C@@]5(C)CC[C@H](OC(=O)CC(C)(C)C(=O)O)C(C)(C)[C@@H]5CC[C@@]4(C)[C@]3(C)CC[C@@]2([C@H](O)CNCc2ccc(F)cc2)CC1=O [Example 79, 4-(((3aR,5aR,5bR,7aR,9S,11aR,11bR,13aS)-3a-((S)-2-((4-fluorobenzyl)amino)-1-hydroxyethyl)-1-isopropyl-5a,5b,8,8,11a-pentamethyl-2-oxo-3,3a,4,5,5a,5b,6,7,7a,8,9,10,11,11a,11b,12,13,13a-octadecahydro-2H-cyclopenta[a]chrysen-9-yl)oxy)-2,2-dimethyl-4-oxobutanoic acid], the EC50 is reported as 14.7 nM. CC(C)C1=C2[C@H]3CC[C@@H]4[C@@]5(C)CC[C@H](OC(=O)CC(C)(C)C(=O)O)C(C)(C)[C@@H]5CC[C@@]4(C)[C@]3(C)CC[C@@]2([C@@H](O)CN(CCN(C)C)Cc2ccc(Cl)cc2Cl)CC1=O [Example 80, 4-{[(1R,2R,5R,10S,13R,14R, 17S,19R)-5-[(1R)-2-{[(2,4-dichlorophenyl)methyl][2-(dimethylamino)ethyl]amino}-1-hydroxyethyl]-1,2,14,18,18-pentamethyl-7-oxo-8-(propan-2-yl)pentacyclo[11.8.0.0^ {2,10}.0^{5,9}.0^{14,19}]henicos-8-en-17-yl]oxy}-2,2-dimethyl-4-oxobutanoic acid] was tested, and the EC50 was 2.4 nM. With CC(C)C1=C2[C@H]3CC[C@@H]4[C@@]5(C)CC[C@H](OC(=O)CC(C)(C)C(=O)O)C(C)(C)[C@@H]5CC[C@@]4(C)[C@]3(C)CC[C@@]2([C@@H](O)CN(CCN(C)C)C(=O)c2ccc(Cl)cc2)CC1=O [Example 81, 4-{[(1R,2R,5R,10S,13R,14R, 17S,19R)-5-[(1R)-2-[1-(4-chlorophenyl)-N-[2-(dimethylamino)ethyl] formamido]-1-hydroxyethyl]-1,2,14,18,18-pentamethyl-7-oxo-8-(propan-2-yl)pentacyclo[11.8.0.0^ {2,10}.0^{5,9}.0^{14,19}]henicos-8-en-17-yl]oxy}-2,2-dimethyl-4-oxobutanoic acid] the EC50 was 3 nM.
